Measurements published in ChEMBL document CHEMBL6071198, “Advances in Cancer Treatment and Monitoring: Insights from KRAS Inhibitors and Germline Epitope Burden Monitoring” (ACS Med Chem Lett, 2024).

Experiments:
GTPase KRas/RAF1 = GTPase KRas/RAF1 (Homo sapiens, UniProt P01116); test: Inhibition of biotinylated wild type KRAS (1 to 169 residues) (unknown origin)/CRAF RBD (unknown origin) protein-protein interaction preincubated for 60 mins followed by SOS1 and GTPgs addition measured after 60 mins by FRET assay
[1] = Inhibition of biotinylated KRAS G12D mutant (unknown origin)/CRAF RBD (unknown origin) protein-protein interaction preincubated for 60 mins followed by SOS1 and GTPgs addition measured after 60 mins by FRET assay; design: species or system Homo sapiens

C#Cc1c(F)ccc2cc(O)cc(-c3ncc4c(N5CC6CCC(C5)N6)nc(OC[C@@H]5CCCN5CCCOCCC(=O)N[C@H](C(=O)N5C[C@H](O)C[C@@H]5C(=O)N[C@@H](C)c5ccc(-c6ccncc6C#N)cc5)C(C)(C)C)nc4c3F)c12
IC50 (GTPase KRas/RAF1): 24.2 nM
IC50 [1]: 7.93 nM

Cc1ncsc1-c1ccc([C@H](C)NC(=O)[C@H]2C[C@@H](O)CN2C(=O)[C@@H](NC(=O)CCOCCCN2CCC[C@H]2COc2nc(N3CC4CCC(C3)N4)c3cc(Cl)c(-c4ccc(F)c5sc(N)c(C#N)c45)c(F)c3n2)C(C)(C)C)cc1
IC50 (GTPase KRas/RAF1): 25.9 nM
IC50 [1]: 8.18 nM

C[C@H](NC(=O)[C@H]1C[C@@H](O)CN1C(=O)[C@@H](NC(=O)CCOCCCN1CCC[C@H]1COc1nc(N2CC3CCC(C2)N3)c2cc(Cl)c(-c3ccc(F)c4sc(N)c(C#N)c34)c(F)c2n1)C(C)(C)C)c1ccc(-c2c(F)cccc2F)cc1
IC50 (GTPase KRas/RAF1): 77.7 nM
IC50 [1]: 7.67 nM

C[C@H](NC(=O)[C@H]1C[C@@H](O)CN1C(=O)[C@@H](NC(=O)CCOCCCN1CCC[C@H]1COc1nc(N2CC3CCC(C2)N3)c2cc(C(F)(F)F)c(-c3ccc(F)c4sc(N)c(C#N)c34)c(F)c2n1)C(C)(C)C)c1ccc(-c2c(F)cccc2F)cc1
IC50 (GTPase KRas/RAF1): 26.9 nM
IC50 [1]: 8.52 nM

C#Cc1c(F)ccc2cc(O)cc(-c3ncc4c(N5CC6CCC(C5)N6)nc(OC[C@@H]5CCCN5CCCOCCC(=O)N[C@H](C(=O)N5C[C@H](O)C[C@@H]5C(=O)N[C@@H](C)c5ccc(-c6c(F)cccc6F)cc5)C(C)(C)C)nc4c3F)c12
IC50 (GTPase KRas/RAF1): 41.9 nM
IC50 [1]: 9.4 nM

Cc1ncsc1-c1ccc([C@H](C)NC(=O)[C@H]2C[C@@H](O)CN2C(=O)[C@@H](NC(=O)CCOCCCN2CCC[C@H]2COc2nc(N3CC4CCC(C3)N4)c3cnc(-c4cc(O)cc5cccc(F)c45)c(F)c3n2)C(C)(C)C)cc1
IC50 (GTPase KRas/RAF1): 158 nM
IC50 [1]: 8.21 nM
